Measured values published in patent publication US11613538B2, “Method of inhibiting or reducing a viral infection” (PTC Therapeutics, Inc., priority 2009, dated 2023).

Tested on: hypoxia-induced VEGF production in HeLa cells
Experiment: cells
Assay type: cell-based, human
Settings: Homo sapiens, HeLa

| Compound | EC50 [nM] |
| --- | --- |
| CCOC(=O)N1CCc2c([nH]c3ccc(Cl)cc23)C1c1ccc(OCC(O)CO)cc1 (stereo not drawn) [Compound 1000] | 8 to 40 |
| CC#CCOC(=O)N1CCc2c([nH]c3ccc(Cl)cc23)C1c1ccc(OCC(O)CN)cc1 (stereo not drawn) [Compound 1002] | 40 to 200 |
| CCOC(=O)N1CCc2c([nH]c3ccc(Cl)cc23)C1c1ccc(OCC(=O)N2CCN(CCOC)CC2)cc1 (stereo not drawn) [Compound 1003] | 8 to 40 |
| CCOC(=O)N1CCc2c([nH]c3ccc(Cl)cc23)C1c1ccc(OCC(=O)NCCN2CCOCC2)cc1 (stereo not drawn) [Compound 1004] | 8 to 40 |
| COc1ccc(OC(=O)N2CCc3c([nH]c4ccc(Cl)cc34)C2c2ccc(OCCC3CCCN3C)cc2)cc1 (stereo not drawn) [Compound 1005] | 200 to 1000 |
| CCOC(=O)N1CCc2c([nH]c3ccc(Cl)cc23)C1c1ccc(OCCC2CCCN2C)cc1 (stereo not drawn) [Compound 1006] | 40 to 200 |
| COC(=O)N1CCc2c([nH]c3ccc(Cl)cc23)C1c1ccc(OCCC2CCCN2C)cc1 (stereo not drawn) [Compound 1007] | 40 to 200 |
| CN1CCCC1CCOc1ccc(C2c3[nH]c4ccc(Cl)cc4c3CCN2C(=O)Oc2ccc(F)cc2)cc1 (stereo not drawn) [Compound 1008] | 40 to 200 |
| COC(=O)N1CCc2c([nH]c3ccc(Cl)cc23)C1c1ccc(OCC2CCCCN2C)cc1 (stereo not drawn) [Compound 1010] | 40 to 200 |
| CCOC(=O)N1CCc2c([nH]c3ccc(Cl)cc23)C1c1ccc(OCC(=O)N2CCOCC2)cc1 (stereo not drawn) [Compound 1012] | 40 to 200 |
| CCOC(=O)N1CCc2c([nH]c3ccc(Cl)cc23)C1c1ccc(OCC(=O)NCCO)cc1 (stereo not drawn) [Compound 1013] | 8 to 40 |
| CCOC(=O)N1CCc2c([nH]c3ccc(Cl)cc23)C1c1ccc(OCC(=O)N2CCN(CCO)CC2)cc1 (stereo not drawn) [Compound 1014] | 40 to 200 |
| CCOC(=O)N1CCc2c([nH]c3ccc(Cl)cc23)C1c1ccc(OCC(=O)NCCOC)cc1 (stereo not drawn) [Compound 1015] | 40 to 200 |
| O=C(Oc1ccc(Cl)cc1)N1CCc2c([nH]c3ccc(Cl)cc23)C1c1ccc(OCCCn2nccn2)cc1 (stereo not drawn) [Compound 1016] | > 1000 |
| O=C(Oc1ccc(F)cc1)N1CCc2c([nH]c3ccc(Cl)cc23)C1c1ccc(OCCCn2nccn2)cc1 (stereo not drawn) [Compound 1017] | < 8 |
| CC#CCOC(=O)N1CCc2c([nH]c3ccc(Cl)cc23)C1c1ccc(OCC(O)CO)cc1 (stereo not drawn) [Compound 1018] | 8 to 40 |
| C#CCCOC(=O)N1CCc2c([nH]c3ccc(Cl)cc23)C1c1ccc(OCC(O)CO)cc1 (stereo not drawn) [Compound 1019] | 8 to 40 |
| C#CCOC(=O)N1CCc2c([nH]c3ccc(Cl)cc23)C1c1ccc(OCC(O)CO)cc1 (stereo not drawn) [Compound 1020] | 8 to 40 |

| Compound | EC50 [nM] |
| --- | --- |
| COCCN1CCN(C(=O)COc2ccc(C3c4[nH]c5ccc(Cl)cc5c4CCN3C(=O)Oc3ccc(F)cc3)cc2)CC1 (stereo not drawn) [Compound 1021] | 40 to 200 |
| O=C(COc1ccc(C2c3[nH]c4ccc(Cl)cc4c3CCN2C(=O)Oc2ccc(F)cc2)cc1)NCCN1CCOCC1 (stereo not drawn) [Compound 1022] | 40 to 200 |
| O=C(COc1ccc(C2c3[nH]c4ccc(Cl)cc4c3CCN2C(=O)Oc2ccc(F)cc2)cc1)N1CCOCC1 (stereo not drawn) [Compound 1023] | 8 to 40 |
| CCN1CCN(C(=O)COc2ccc(C3c4[nH]c5ccc(Cl)cc5c4CCN3C(=O)Oc3ccc(F)cc3)cc2)CC1 (stereo not drawn) [Compound 1024] | 40 to 200 |
| COCCN1CCN(C(=O)COc2ccc(C3c4[nH]c5ccc(Cl)cc5c4CCN3C(=O)Oc3ccc(OC)cc3)cc2)CC1 (stereo not drawn) [Compound 1025] | 40 to 200 |
| COc1ccc(OC(=O)N2CCc3c([nH]c4ccc(Cl)cc34)C2c2ccc(OCC(=O)NCCN3CCOCC3)cc2)cc1 (stereo not drawn) [Compound 1026] | 8 to 40 |
| CCN1CCN(C(=O)COc2ccc(C3c4[nH]c5ccc(Cl)cc5c4CCN3C(=O)Oc3ccc(OC)cc3)cc2)CC1 (stereo not drawn) [Compound 1028] | 40 to 200 |
| COc1ccc(OC(=O)N2CCc3c([nH]c4ccc(Cl)cc34)C2c2ccc(OCC(=O)N3CCN(CCCN(C)C)CC3)cc2)cc1 (stereo not drawn) [Compound 1029] | > 1000 |
| COc1ccc(OC(=O)N2CCc3c([nH]c4ccc(Cl)cc34)C2c2ccc(OCCCN3CCOCC3)cc2)cc1 (stereo not drawn) [Compound 1030] | 8 to 40 |
| COC(=O)N1CCc2c([nH]c3ccc(Cl)cc23)C1c1ccc(OCC2OCCO2)cc1 (stereo not drawn) [Compound 1032] | 8 to 40 |
| CCOC(=O)N1CCc2c([nH]c3ccc(Cl)cc23)C1c1ccc(OCC2OCCO2)cc1 (stereo not drawn) [Compound 1033] | 8 to 40 |
| CCCOC(=O)N1CCc2c([nH]c3ccc(Cl)cc23)C1c1ccc(OCC2OCCO2)cc1 (stereo not drawn) [Compound 1034] | < 8 |
| CCCCOC(=O)N1CCc2c([nH]c3ccc(Cl)cc23)C1c1ccc(OCC2OCCO2)cc1 (stereo not drawn) [Compound 1035] | < 8 |
| CC(C)COC(=O)N1CCc2c([nH]c3ccc(Cl)cc23)C1c1ccc(OCC2OCCO2)cc1 (stereo not drawn) [Compound 1037] | < 8 |
| CC(C)(C)COC(=O)N1CCc2c([nH]c3ccc(Cl)cc23)C1c1ccc(OCC2OCCO2)cc1 (stereo not drawn) [Compound 1038] | < 8 |
| O=C(OCCF)N1CCc2c([nH]c3ccc(Cl)cc23)C1c1ccc(OCC2OCCO2)cc1 (stereo not drawn) [Compound 1039] | < 8 |
| O=C(OCCCl)N1CCc2c([nH]c3ccc(Cl)cc23)C1c1ccc(OCC2OCCO2)cc1 (stereo not drawn) [Compound 1040] | 8 to 40 |
| O=C(OCCCCl)N1CCc2c([nH]c3ccc(Cl)cc23)C1c1ccc(OCC2OCCO2)cc1 (stereo not drawn) [Compound 1041] | 8 to 40 |
